Results taken from patent US11666570B2, “Diagnosis and regulation of epidermal differentiation and cancer cell activity” (The Board of Trustees of the Leland Stanford Junior …, priority 2019, dated 2023).
Residues, ends and D or L forms follow the SMILES beside them. *: point of attachment. Cbz = O=C(OCc1ccccc1)*

Experiments:
Format in all cases: cell-based
[1] = tested on: oncogenic Ras-transformed human skin organoids; assay: Neoplastic invasion in human skin organoids transformed by oncogenic Ras and Cdk4
Source text: (§1) As loss of differentiation may be coupled to other cancer-enabling behaviors, we next considered the therapeutic implications of aberrant RET activation in SCC. […] We next used MAB21L4-intact or MAB21L4-ablated primary human keratinocytes to generate skin organoids programmed to undergo invasive neoplasia by oncogenic Ras and Cdk4. These neoplastic tissues were maintained in culture medium containing BLU-667 to investigate the contribution of RET to SCC development.
(§2) To test this, we assessed neoplastic invasion in human skin organoids with BLU-667 added to the culture medium after early malignant transformation occurred. […] Human skin tissues undergoing malignant transformation by enforced expression of oncogenic Ras and Cdk4 were then subjected to BLU-667 treatment following the onset of early neoplastic invasion.
(§3) Human Skin Organoids and Skin Xenografts Generation of human skin organoids was performed as previously described. Briefly, 1×10^6 keratinocytes were seeded onto a 1 cm^2 section of devitalized human dermis and cultured at the air-liquid interface for up to 6 days for differentiation studies. To generate organotypic invasive epidermal neoplasia, devitalized human dermis was populated with human primary fibroblasts at least 1 week prior to keratinocyte seeding. Keratinocytes were transduced with oncogenic HRas as well as Cdk4 and seeded onto fibroblast-containing dermis. Neoplastic tissues were harvested for analysis up to 14 days post-seeding.
Immunofluorescence Human skin organoids were embedded in Optimal Cutting Temperature (OCT) compound (Sakura Finetek) and 7 μm tissue sections were mounted onto polylysine slides (Thermo Scientific). Tissue cryosections were fixed in 100% methanol at −20° C. for 10 min and subsequently permeabilized by incubation with 0.1% Triton X-100 (Sigma-Aldrich) in PBS. The tissues were then incubated for 30 minutes at room temperature with blocking buffer (horse serum diluted 1:10 in PBS) and then for 1 hour with primary antibodies diluted in 0.05% Triton X-100 (Sigma-Aldrich) and 1:100 horse serum in PBS. […]
Images of several zstacks were acquired and the maximum intensity projection image was generated by using the Fiji-ImageJ package. Invasion index was calculated as integrated density of the Keratin 5 staining underneath the basement membrane divided by the length of the basement membrane. Integrated density and basement membrane length were both analyzed using the Fiji-ImageJ package. The invasion depth was calculated as the distance between the basement membrane and the most distant invading cell in each field of view analyzed. The distance between the basement membrane and the most distant invading cell was analyzed in 3 areas of each field of view using the Fiji-ImageJ package and was averaged. […]

RET [2] = molecular target: T1, RET (Homo sapiens, UniProt P07949); assay: RET phosphorylation at Y1062 in non-transformed human skin organoids (Western blot); conditions: non-transformed human skin organoids grown 7 days on dermis, BLU-667 15 nM vs DMSO
T1 construct: endogenous in cells; host or cells: human skin organoids from primary human keratinocytes seeded on devitalized human dermis
T1 sequence (P07949 29-1114): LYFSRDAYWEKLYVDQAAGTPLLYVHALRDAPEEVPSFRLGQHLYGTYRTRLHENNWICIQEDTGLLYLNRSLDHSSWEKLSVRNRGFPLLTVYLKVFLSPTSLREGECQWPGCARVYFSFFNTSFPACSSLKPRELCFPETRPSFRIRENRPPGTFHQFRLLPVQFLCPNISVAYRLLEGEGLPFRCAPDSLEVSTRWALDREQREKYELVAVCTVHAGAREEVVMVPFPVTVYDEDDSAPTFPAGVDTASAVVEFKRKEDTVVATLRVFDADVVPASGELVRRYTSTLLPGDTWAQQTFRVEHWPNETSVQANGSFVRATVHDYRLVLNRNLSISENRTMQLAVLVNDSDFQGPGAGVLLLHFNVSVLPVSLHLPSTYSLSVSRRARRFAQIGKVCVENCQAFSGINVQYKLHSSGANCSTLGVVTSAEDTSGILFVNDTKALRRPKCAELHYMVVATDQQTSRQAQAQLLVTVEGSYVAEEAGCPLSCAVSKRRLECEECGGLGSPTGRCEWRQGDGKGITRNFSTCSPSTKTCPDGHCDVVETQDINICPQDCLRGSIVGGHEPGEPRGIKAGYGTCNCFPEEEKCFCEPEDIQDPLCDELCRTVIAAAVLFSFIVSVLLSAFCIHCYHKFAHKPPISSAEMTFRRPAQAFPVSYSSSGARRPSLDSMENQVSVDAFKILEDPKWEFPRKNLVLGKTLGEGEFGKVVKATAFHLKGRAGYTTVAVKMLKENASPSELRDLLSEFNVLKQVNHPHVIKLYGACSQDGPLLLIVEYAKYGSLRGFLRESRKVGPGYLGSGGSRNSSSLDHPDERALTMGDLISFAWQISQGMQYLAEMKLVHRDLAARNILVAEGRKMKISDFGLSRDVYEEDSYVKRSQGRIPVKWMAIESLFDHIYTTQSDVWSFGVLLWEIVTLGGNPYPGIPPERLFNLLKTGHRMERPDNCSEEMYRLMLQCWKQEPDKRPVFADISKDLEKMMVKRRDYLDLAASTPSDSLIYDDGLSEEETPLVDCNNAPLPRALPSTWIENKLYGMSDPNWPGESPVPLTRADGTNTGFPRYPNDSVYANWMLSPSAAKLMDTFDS
Source text: as §1
as §3, with “Briefly, 1×10^6 keratinocytes were seeded onto a 1 cm^2 section of devitalized human dermis and cultured at the air-liquid interface for up to 6 days for differentiation studies.” left out
Western Blotting Cells and organoids were both lysed in RIPA buffer (Thermo Fisher Scientific) supplemented with phosphatase inhibitor and protease inhibitor cocktails (Sigma-Aldrich). For human skin organoids, the epidermis was separated from the dermis, immersed in RIPA buffer, and subjected to 4 cycles of disruption using the gentleMACS Dissociator (Miltenyi Biotec). […]

human skin organoids = assay: Stratification and epidermal thickness of organotypic human epidermis under BLU-667 (immunofluorescence); conditions: vs vehicle (DMSO)
Source text: as §1, §2
as §3, with “Neoplastic tissues were harvested for analysis up to 14 days post-seeding.” left out

RET [3] = assay: RET expression in normal human skin organoids treated with proteasome inhibitor (Western blot); conditions: normal skin organoids grown 3 days on dermis, MG132 20 μM for 12 hrs vs DMSO
Source text: Given the proximity of CacyBP and RET, we wondered whether RET stability in the skin might be regulated by ubiquitination. Fluorescent PLA signal generated by RET and ubiquitin proximity was abolished in MAB21L4-ablated epidermis using two independent sgRNAs (FIG. 5f,g). […] Loss of MAB21L4, such as occurs in cancer, would stabilize RET by preventing its Siah1-mediated degradation and may explain RET upregulation in SCC.
as §3
Western Blotting Cells and organoids were both lysed in RIPA buffer (Thermo Fisher Scientific) supplemented with phosphatase inhibitor and protease inhibitor cocktails (Sigma-Aldrich). […]

[4] = MAB21L4-intact or MAB21L4-ablated Ras/Cdk4 organoids, 7 days in medium containing BLU-667 15 nM
[5] = Ras/Cdk4 organoids, BLU-667 15 nM initiated on day 7 after early invasion, analysed day 14, vs vehicle

SMILES | basement membrane degradation [1, 4] | neoplastic invasion (invasion index) [1, 4] | keratinocytes below the basement membrane (invasion index), established invasion [1, 5] | tumor infiltration depth (invasion depth), established invasion [1, 5] | RET phosphorylation at Y1062 (suppression of RET signaling) (RET [2]) | epidermal stratification and thickness (human skin organoids; late-onset treatment: BLU-667 15 nM initiated on day 7, 14 days of growth) | stratification and epidermal thickness (human skin organoids; organoids cultured in continuous presence of BLU-667 15 nM, 7 days) | RET expression (RET [3])
CO[C@]1(C(=O)N[C@@H](C)c2ccc(-n3cc(F)cn3)nc2)CC[C@H](c2nc(C)cc(Nc3cc(C)[nH]n3)n2)CC1 [BLU-667] | prevented basement membrane degradation | suppressed invasion accelerated by MAB21L4 loss | fewer keratinocytes below the basement membrane | reduction in tumor infiltration depth | reduction in RET phosphorylation at Y1062 | did not adversely affect epidermal stratification and thickness | did not differ substantially from vehicle controls | –
CC(C)C[C@@H](C=O)NC(=O)[C@H](CC(C)C)NC(=O)[C@H](CC(C)C)NC(=O)OCc1ccccc1 [MG132] (Cbz-Leu-Leu-Leu-aldehyde) | – | – | – | – | – | – | – | RET accumulation
